{
  "source": "PubChem BioAssay AID328",
  "about": "(DTP/NCI, 2004)",
  "test_system": "BDF1 mice, P388 leukemia ip, median survival T/C",
  "experiment": "NCI In Vivo Anticancer Drug Screen. Data for tumor model P388 Leukemia (intraperitoneal) in B6D2F1 (BDF1) mice",
  "details": "endpoint: median survival time, higher = longer survival",
  "in_short": "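In tumour-bearing mice, survival after compound treatment is set against the vehicle group and given as a quotient.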",
  "key": {"[1]": {"details": "dose: 100.0 mg/kg/injection, schedule: Q01DX001 (ip), vehicle: saline with Tween-80"}, "[2]": {"details": "dose: 200.0 mg/kg/injection, schedule: Q01DX001 (ip), vehicle: saline with Tween-80"}, "[3]": {"details": "dose: 100.0 mg/kg/injection, schedule: Q04DX003 (ip), vehicle: saline with Tween-80"}, "[4]": {"details": "dose: 50.0 mg/kg/injection, schedule: Q01DX009 (ip), vehicle: saline with Tween-80"}, "[5]": {"details": "dose: 100.0 mg/kg/injection, schedule: Q01DX009 (ip), vehicle: saline"}},
  "note": "Several values for one entry are separate records, joined by “and”; a condition that tells them apart may be missing. Equal values may be shown once. Toxic doses and inconclusive results are not listed.",
  "data": [
    {"smiles": "CCC(C)C1NC(=O)C(NC(=O)c2c3nc4c(C(=O)NC5C(=O)NC(C(C)CC)C(=O)N6CCCC6C(=O)N(C)CC(=O)N(C)C(C(C)C)C(=O)OC5C)cc(N)c(C)c4oc-3c(C)c(=O)c2N)C(C)OC(=O)C(C(C)C)N(C)C(=O)CN(C)C(=O)C2CCCN2C1=O", "note": "(stereo not given)", "values": [
      {"measurement": "T/C", "setting": "dose: 0.15 mg/kg/injection, schedule: Q04DX003 (ip), vehicle: saline + alcohol", "result": "206 % of control"},
      {"measurement": "T/C", "setting": "dose: 0.3 mg/kg/injection, schedule: Q04DX003 (ip), vehicle: saline + alcohol", "result": "227 % of control"},
      {"measurement": "T/C", "setting": "dose: 0.6 mg/kg/injection, schedule: Q04DX003 (ip), vehicle: saline + alcohol", "result": "255 % of control and 312 % of control"},
      {"measurement": "T/C", "setting": "dose: 1.2 mg/kg/injection, schedule: Q04DX003 (ip), vehicle: saline + alcohol", "result": "197 % of control"},
      {"measurement": "T/C", "setting": "dose: 25.0 micrograms/kg/injection, schedule: Q01DX009 (ip), vehicle: saline + alcohol", "result": "190 % of control"},
      {"measurement": "T/C", "setting": "dose: 50.0 micrograms/kg/injection, schedule: Q01DX009 (ip), vehicle: saline + alcohol", "result": "236 % of control"},
      {"measurement": "T/C", "setting": "dose: 100.0 micrograms/kg/injection, schedule: Q01DX009 (ip), vehicle: saline + alcohol", "result": "232 % of control"},
      {"measurement": "T/C", "setting": "dose: 200.0 micrograms/kg/injection, schedule: Q01DX009 (ip), vehicle: saline + alcohol", "result": "291 % of control"},
      {"measurement": "T/C", "setting": "dose: 400.0 micrograms/kg/injection, schedule: Q01DX009 (ip), vehicle: saline + alcohol", "result": "86 % of control"}
    ]},
    {"smiles": "CCOP(=S)(OCC)OP(=S)(OCC)OCC", "values": [
      {"measurement": "T/C", "setting": "dose: 1.0 mg/kg/injection, schedule: Q04DX003 (ip), vehicle: other", "result": "111 % of control"},
      {"measurement": "T/C", "setting": "dose: 2.0 mg/kg/injection, schedule: Q04DX003 (ip), vehicle: other", "result": "106 % of control"},
      {"measurement": "T/C", "setting": "dose: 4.0 mg/kg/injection, schedule: Q04DX003 (ip), vehicle: other", "result": "106 % of control"}
    ]},
    {"smiles": "CSC/C(=N\\Nc1ccc([N+](=O)[O-])cc1[N+](=O)[O-])c1ccccc1", "values": [
      {"measurement": "T/C", "setting": "dose: 1.56 mg/kg/injection, schedule: Q01DX001 (ip), vehicle: saline with Tween-80", "result": "100 % of control"},
      {"measurement": "T/C", "setting": "dose: 3.13 mg/kg/injection, schedule: Q01DX001 (ip), vehicle: saline with Tween-80", "result": "104 % of control"},
      {"measurement": "T/C", "setting": "dose: 6.25 mg/kg/injection, schedule: Q01DX001 (ip), vehicle: saline with Tween-80", "result": "114 % of control"}
    ]},
    {"smiles": "COCC1CCSC1=O", "note": "(stereo not given)", "values": [
      {"measurement": "T/C", "setting": "[1]", "result": "102 % of control"},
      {"measurement": "T/C", "setting": "[2]", "result": "102 % of control"},
      {"measurement": "T/C", "setting": "dose: 400.0 mg/kg/injection, schedule: Q01DX001 (ip), vehicle: saline with Tween-80", "result": "93 % of control"}
    ]},
    {"smiles": "C=CCNC(=S)Nc1cc(Cl)ccc1OC", "values": [
      {"measurement": "T/C", "setting": "dose: 100.0 mg/kg/injection, schedule: Q04DX003 (ip), vehicle: Klucel (hydroxypropylcellulose) (HPC)", "result": "109 % of control"},
      {"measurement": "T/C", "setting": "dose: 200.0 mg/kg/injection, schedule: Q04DX003 (ip), vehicle: Klucel (hydroxypropylcellulose) (HPC)", "result": "95 % of control"},
      {"measurement": "T/C", "setting": "dose: 400.0 mg/kg/injection, schedule: Q04DX003 (ip), vehicle: Klucel (hydroxypropylcellulose) (HPC)", "result": "95 % of control"}
    ]},
    {"smiles": "O=C(O)c1ccccc1C(=O)Nc1cc(C(F)(F)F)ccc1Cl", "values": [
      {"measurement": "T/C", "setting": "[3]", "result": "90 % of control"},
      {"measurement": "T/C", "setting": "dose: 200.0 mg/kg/injection, schedule: Q04DX003 (ip), vehicle: saline with Tween-80", "result": "104 % of control"},
      {"measurement": "T/C", "setting": "dose: 400.0 mg/kg/injection, schedule: Q04DX003 (ip), vehicle: saline with Tween-80", "result": "118 % of control"}
    ]},
    {"smiles": "CC=NC(C[S-])C(=O)O.CC=NC(C[S-])C(=O)O.[Fe+2]", "note": "(stereo not given)", "values": [
      {"measurement": "T/C", "setting": "[4]", "result": "110 % of control"},
      {"measurement": "T/C", "setting": "dose: 100.0 mg/kg/injection, schedule: Q01DX009 (ip), vehicle: saline with Tween-80", "result": "100 % of control and 105 % of control"},
      {"measurement": "T/C", "setting": "dose: 200.0 mg/kg/injection, schedule: Q01DX009 (ip), vehicle: saline with Tween-80", "result": "100 % of control and 104 % of control"}
    ]},
    {"smiles": "COc1ccccc1-n1c(=O)c(N=Nc2ccccc2)c(O)n(-c2ccccc2C)c1=S", "values": [
      {"measurement": "T/C", "setting": "[1]", "result": "95 % of control"},
      {"measurement": "T/C", "setting": "[2]", "result": "95 % of control"}
    ]},
    {"smiles": "COc1ccc(Cc2c3cc(OC)c(OC)cc3cc[n+]2C)cc1OC", "values": [
      {"measurement": "T/C", "setting": "dose: 25.0 mg/kg/injection, schedule: Q01DX009 (ip), vehicle: saline with Tween-80", "result": "90 % of control"},
      {"measurement": "T/C", "setting": "[4]", "result": "100 % of control"},
      {"measurement": "T/C", "setting": "[3]", "result": "108 % of control"}
    ]},
    {"smiles": "COc1ccc(/C=C/C(=O)c2ccc3c(c2)OCO3)cc1O", "values": [
      {"measurement": "T/C", "setting": "dose: 3.12 mg/kg/injection, schedule: Q01DX009 (ip), vehicle: saline", "result": "104 % of control and 106 % of control"},
      {"measurement": "T/C", "setting": "dose: 6.25 mg/kg/injection, schedule: Q01DX009 (ip), vehicle: saline", "result": "93 % of control and 104 % of control"},
      {"measurement": "T/C", "setting": "dose: 12.5 mg/kg/injection, schedule: Q01DX009 (ip), vehicle: saline", "result": "100 % of control"},
      {"measurement": "T/C", "setting": "dose: 25.0 mg/kg/injection, schedule: Q01DX009 (ip), vehicle: saline", "result": "94 % of control and 110 % of control"},
      {"measurement": "T/C", "setting": "dose: 50.0 mg/kg/injection, schedule: Q01DX009 (ip), vehicle: saline", "result": "101 % of control and 107 % of control"},
      {"measurement": "T/C", "setting": "dose: 50.0 mg/kg/injection, schedule: Q04DX003 (ip), vehicle: saline", "result": "106 % of control"},
      {"measurement": "T/C", "setting": "[5]", "result": "93 % of control and 96 % of control"},
      {"measurement": "T/C", "setting": "dose: 100.0 mg/kg/injection, schedule: Q04DX003 (ip), vehicle: saline", "result": "113 % of control"},
      {"measurement": "T/C", "setting": "dose: 200.0 mg/kg/injection, schedule: Q04DX003 (ip), vehicle: saline", "result": "104 % of control"},
      {"measurement": "T/C", "setting": "dose: 400.0 mg/kg/injection, schedule: Q04DX003 (ip), vehicle: saline", "result": "114 % of control"}
    ]},
    {"smiles": "COC(=O)C(C)(OC)OC", "values": [
      {"measurement": "T/C", "setting": "[5]", "result": "100 % of control"},
      {"measurement": "T/C", "setting": "dose: 200.0 mg/kg/injection, schedule: Q01DX009 (ip), vehicle: saline", "result": "100 % of control"},
      {"measurement": "T/C", "setting": "dose: 400.0 mg/kg/injection, schedule: Q01DX009 (ip), vehicle: saline", "result": "100 % of control"}
    ]}
  ]
}
